# Values joined by “and” are separate entries in the source; they are usually repeats but may differ in a detail not shown here. Identical values can stand only once. Like-named read-outs stand apart in the source and are kept apart here.
# How the values were obtained:
# Velvetleaf (VELE) = type: in vivo, Abutilon theophrasti
# Shattercane (SHCA) = type: in vivo
# Giant foxtail (GIFT) = assay: whole plant or invertebrate; type: in vivo; details: in vivo
# [1] = Antidote 4.48 + Biocide No. 1 8.96 Kg/Ha PPI, Herb. No. 8 0.07, 5 DAP, before herbicide application
# [2] = Antidote 4.48 + Biocide No. 1 8.96 Kg/Ha PPI, Herb. No. 8 0.07 POE, 13 DAP
# [3] = Antidote 4.48 + Biocide No. 1 8.96 Kg/Ha PPI, Herbicide No. 7 0.28 POE, 13 days after planting
# [4] = Herb. […], 5 DAP, before herbicide application
# [5] = Table 14: Herbicide No. 7 (ACCENT) 0.84 Kg/Ha POE + Biocide No. 2 8.96 Kg/Ha PPI + antidote 4.48 Kg/Ha PPI, 13 days after planting, 8 days after herbicide
# [6] = […], 13 days after planting, 8 days after herbicide
# [7] = […], observed 10 days after herbicide application
# [8] = Antidote 8.96 + Biocide No. 1 8.96 Kg/Ha PPI, Herb. No. 8 0.07, 5 DAP, before herbicide application
# [9] = Antidote 8.96 + Biocide No. 1 8.96 Kg/Ha PPI, Herb. No. 8 0.07 POE, 13 DAP
# [10] = Antidote 8.96 + Biocide No. 1 8.96 Kg/Ha PPI, Herbicide No. 7 0.28 POE, 13 days after planting
# [11] = Table 14: Herbicide No. 7 (ACCENT) 0.84 Kg/Ha POE + Biocide No. 2 8.96 Kg/Ha PPI + antidote 8.96 Kg/Ha PPI, 13 days after planting, 8 days after herbicide
# [12] = Herb. […], 13 DAP, after herbicide application
Structure (SMILES),% Inhibition 5 DAP VELE (Velvetleaf (VELE); [1]) [%],% Inhibition 13 DAP VELE (Velvetleaf (VELE); [2]) [%],% Inhibition VELE (Velvetleaf (VELE); [3]) [%],% Inhibition 5 DAP VELE (Velvetleaf (VELE); [4]) [%],% Inhibition VELE (Velvetleaf (VELE); [5]) [%],% Inhibition VELE (Velvetleaf (VELE); [6]) [%],% Inhibition VELE (Velvetleaf (VELE); [7]) [%],% Inhibition 5 DAP VELE (Velvetleaf (VELE); in vivo) [%],% Inhibition 13 DAP VELE (Velvetleaf (VELE); in vivo) [%],% Inhibition 5 DAP SHCA (Shattercane (SHCA); [4]) [%],% Inhibition SHCA (Shattercane (SHCA); [6]) [%],% Inhibition SHCA (Shattercane (SHCA); [7]) [%],% Inhibition 5 DAP SHCA (Shattercane (SHCA); in vivo) [%],% Inhibition 13 DAP SHCA (Shattercane (SHCA); in vivo) [%],% Inhibition 5 DAP Corn (Corn; [4]) [%],% Inhibition Corn (Corn; [6]) [%],% Inhibition Corn (Corn; [7]) [%],% Inhibition 5 DAP Corn (Corn; in vivo) [%],% Inhibition 13 DAP Corn (Corn; in vivo) [%],% Inhibition GIFT (Giant foxtail (GIFT)),also measured
C=CCN(CC=C)C(=O)C(Cl)Cl [compound 2],0,95,65,0,70,60,80,0,85,0,90,65,20,85,0,15,60,20,45,50% and 55% and 80% and 60% and 70% and 90%,% Inhibition 5 DAP SHCA (Shattercane (SHCA); [1]): 0%; % Inhibition 13 DAP SHCA (Shattercane (SHCA); [2]): 85%; % Inhibition SHCA (Shattercane (SHCA); [3]): 75%; % Inhibition SHCA (Shattercane (SHCA); [5]): 75%; % Inhibition 5 DAP Corn (Corn; [1]): 10%; % Inhibition 13 DAP Corn (Corn; [2]): 50%; % Inhibition Corn (Corn; [3]): 30%; % Inhibition Corn (Corn; [5]): 20%
CC(N=C1SCC(=C(Cl)Cl)S1)c1ccccc1 (stereo not shown) [compound 4],–,–,–,0,–,70,80,0,90,0,90,65,30,65,0,25,65,15,30,50% and 65% and 60% and 90% and 55%,% Inhibition 5 DAP VELE (Velvetleaf (VELE); [8]): 0%; % Inhibition 13 DAP VELE (Velvetleaf (VELE); [9]): 90%; % Inhibition VELE (Velvetleaf (VELE); [10]): 70%; % Inhibition VELE (Velvetleaf (VELE); [11]): 65%; % Inhibition 5 DAP SHCA (Shattercane (SHCA); [8]): 10%; % Inhibition 13 DAP SHCA (Shattercane (SHCA); [9]): 85%; % Inhibition SHCA (Shattercane (SHCA); [10]): 75%; % Inhibition 13 DAP SHCA (Shattercane (SHCA); [12]): 90%; % Inhibition SHCA (Shattercane (SHCA); [11]): 70%; % Inhibition SHCA (Shattercane (SHCA); in vivo): 70% and 55% and 60% and 45%; % Inhibition 5 DAP Corn (Corn; [8]): 10%; % Inhibition 13 DAP Corn (Corn; [9]): 60%; % Inhibition Corn (Corn; [10]): 50%; % Inhibition Corn (Corn; [11]): 15%
C=CCSC(=S)N(C)c1ccccc1 [compound 29],0,95,70,0,70,65,75,20,95,10,85,60,40,85,0,35,75,35,65,55% and 75% and 65% and 95%,% Inhibition 5 DAP SHCA (Shattercane (SHCA); [1]): 40%; % Inhibition 13 DAP SHCA (Shattercane (SHCA); [2]): 80%; % Inhibition SHCA (Shattercane (SHCA); [3]): 70%; % Inhibition SHCA (Shattercane (SHCA); [5]): 80%; % Inhibition SHCA (Shattercane (SHCA); in vivo): 80% and 75% and 65% and 45%; % Inhibition 5 DAP Corn (Corn; [1]): 0%; % Inhibition 13 DAP Corn (Corn; [2]): 65%; % Inhibition Corn (Corn; [3]): 60%; % Inhibition Corn (Corn; [5]): 35%
Clc1cc(Cl)nc(-c2ccccc2)n1 [compound 31],0,85,65,0,65,65,80,0,85,0,85,65,20,80,0,30,70,15,65,55% and 80% and 85% and 75% and 95% and 60%,"% Inhibition 13 DAP VELE (Velvetleaf (VELE); [12]): 95%; % Inhibition 5 DAP SHCA (Shattercane (SHCA); [1]): 0%; % Inhibition 13 DAP SHCA (Shattercane (SHCA); [2]): 80%; % Inhibition SHCA (Shattercane (SHCA); [3]): 75%; % Inhibition SHCA (Shattercane (SHCA); [5]): 75%; % Inhibition SHCA (Shattercane (SHCA); in vivo): 85% and 50% and 60% and 45%; % Inhibition 5 DAP Corn (Corn; [1]): 10%; % Inhibition 13 DAP Corn (Corn; [2]): 75%; % Inhibition Corn (Corn; [3]): 65%; % Inhibition Corn (Corn; [5]): 45%; activity in reducing corn injury (Corn; primisulfuron POE + biocides PPI, Tables 8-10): either inactive or weakly active"

# Reference: patent EP0565593B1, “REDUCING PESTICIDAL INTERACTIONS IN CROPS” (priority 1990, dated 1992)
